# Read-outs that look alike come from different tables or passages of the source.
# What was measured:
# Type in all cases: cell-based
# AsPC-1 (K-Ras G12D) [1] = assay: CellTiter-Glo cell viability assay, AsPC-1; details: Homo sapiens, ASPC1, 120 h
# Method in brief: (§1)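 Luminescent viability readout on day 5, plates first brought to room temperature for ~30 min; compounds added straight to plated RAS-mutant cells. Values expressed as percent of mean DMSO signal, curves fitted with a four-parameter logistic model.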
# AsPC-1 (K-Ras G12D) [2] = assay: Potency assay: pERK in AsPC-1 cells; details: Homo sapiens
# NCI-H358 (K-Ras G12C) = assay: CellTiter-Glo cell viability assay, H358; details: Homo sapiens, NCI-H358, 120 h
# Method in brief: as §1
# [3] = AsPC-1, K-Ras G12D, 5-day treatment, read-out: AsPC-1 Cell Viability IC50
# [4] = ASPC1, AsPC-1 cells, K-Ras G12D, read-out: pERK EC50 (AsPC-1 KRAS G12D)
# [5] = NCI-H358, K-Ras G12C, 5-day treatment, read-out: H358 Cell Viability IC50
# [6] = read-out: AsPC-1 Cell Viability IC50, AsPC-1, K-Ras G12D, 5-day treatment
# [7] = ASPC1, read-out: pERK EC50 (AsPC-1 KRAS G12D)
# [8] = read-out: H358 Cell Viability IC50, NCI-H358, K-Ras G12C, 5-day treatment
SMILES,IC50 (AsPC-1 (K-Ras G12D) [1]; [3]),EC50 (AsPC-1 (K-Ras G12D) [2]; [4]),IC50 (NCI-H358 (K-Ras G12C); [5]),IC50 (AsPC-1 (K-Ras G12D) [1]; [6]),EC50 (AsPC-1 (K-Ras G12D) [2]; [7]),IC50 (NCI-H358 (K-Ras G12C); [8]),IC50 (AsPC-1 (K-Ras G12D) [1]; read-out: AsPC-1 Cell Viability IC50),IC50 (NCI-H358 (K-Ras G12C); read-out: H358 Cell Viability IC50)
CCn1c(-c2cccnc2[C@H](C)OC)c2c3cc(ccc31)-c1csc(n1)C[C@H](NC(=O)[C@H](C(C)C)N(C)C(=O)N1CCN(C(=O)[C@@H]3CN3)[C@@H](C)C1)C(=O)N1CCC[C@H](N1)C(=O)OCC(C)(C)C2 [Compound 298],100 to 1000 nM,< 5000 nM,10 to 100 nM,,,,,
CCn1c(-c2cccnc2[C@H](C)OC)c2c3cc(ccc31)-c1cccc(c1)C[C@H](NC(=O)[C@H](C(C)C)N(C)C(=O)CN(C)C(=O)[C@H]1CN1)C(=O)N1CCC[C@H](N1)C(=O)OCC(C)(C)C2 [Compound 107],,,,1000 to 10000 nM,< 5000 nM,100 to 1000 nM,,
CCn1c(-c2cccnc2[C@H](C)OC)c2c3cc(ccc31)-c1csc(n1)C[C@H](NC(=O)[C@H](C(C)C)N(C)C(=O)N1CCN(C(=O)[C@H]3CN3)C[C@H]1C)C(=O)N1CCC[C@H](N1)C(=O)OCC(C)(C)C2 [Compound 301],100 to 1000 nM,< 5000 nM,< 10 nM,,,,,
CCn1c(-c2cccnc2[C@H](C)OC)c2c3cc(ccc31)-c1csc(n1)C[C@H](NC(=O)[C@H](C(C)C)N(C)C(=O)N(C)[C@H]1CCN(C(=O)[C@H]3CN3)C1)C(=O)N1CCC[C@H](N1)C(=O)OCC(C)(C)C2 [Compound 296],1000 to 10000 nM,< 5000 nM,10 to 100 nM,,,,,
CCn1c(-c2cccnc2[C@H](C)OC)c2c3cc(ccc31)-c1csc(n1)C[C@H](NC(=O)[C@H](C(C)C)N(C)C(=O)N1CCN(C(=O)[C@@H]3CN3)[C@H](C)C1)C(=O)N1CCC[C@H](N1)C(=O)OCC(C)(C)C2 [Compound 300],100 to 1000 nM,< 5000 nM,10 to 100 nM,,,,,
CCn1c(-c2cccnc2[C@H](C)OC)c2c3cc(ccc31)-c1cc(O)cc(c1)C[C@H](NC(=O)[C@H](C(C)C)N(C)C(=O)[C@@H]1CCN(C(=O)[C@@H]3CN3)[C@@H]1C)C(=O)N1CCC[C@H](N1)C(=O)OCC(C)(C)C2 [Compound 208],1000 to 10000 nM,< 5000 nM,10 to 100 nM,,,,,
"CCn1c(-c2cccnc2[C@H](C)OC)c2c3cc(ccc31)-c1cc(O)cc(c1)C[C@H](NC(=O)[C@H](C1CCCC1)N1CC[C@]3(CCN(C(=O)[C@@H]4N[C@@H]4C4CC4)C3)C1=O)C(=O)N1CCC[C@H](N1)C(=O)OCC(C)(C)C2 [Example 214, (2S)-2-cyclopentyl-2-((S)-7-((2R,3R)-3-cyclopropylaziridine-2-carbonyl)-1-oxo-2,7-diazaspiro[4.4]nonan-2-yl)-N-((6^3S,4S)-1^1-ethyl-2^5-hydroxy-1^2-(2-((S)-1-methoxyethyl)pyridin-3-yl)-10,10-dimethyl-5,7-dioxo-6^1,6^2,6^3,6^4,6^5,6^6-hexahydro-1^1H-8-oxa-1(5,3)-indola-6(1,3)-pyridazina-2(1,3)-benzenacycloundecaphane-4-yl)acetamide]",10 to 100 nM,< 5000 nM,10 to 100 nM,,,,,
CCn1c(-c2cccnc2[C@H](C)OC)c2c3cc(ccc31)-c1csc(n1)C[C@H](NC(=O)[C@H](C(C)C)N(C)C(=O)N1CCN(C(=O)[C@@H]3CN3)CC1)C(=O)N1CCC[C@H](N1)C(=O)OCC(C)(C)C2 [Compound 168],100 to 1000 nM,< 5000 nM,10 to 100 nM,,,,,
CCn1c(-c2cccnc2[C@H](C)OC)c2c3cc(ccc31)-c1cc(O)cc(c1)C[C@H](NC(=O)[C@H](C(C)C)N(C)C(=O)CN(C)C(=O)[C@H]1CN1CC1COC1)C(=O)N1CCC[C@H](N1)C(=O)OCC(C)(C)C2 (stereo partly drawn) [Compound 277],,,,100 to 1000 nM,< 5000 nM,10 to 100 nM,,
CCn1c(-c2cccnc2[C@H](C)OC)c2c3cc(ccc31)-c1csc(n1)C[C@H](NC(=O)[C@H](C(C)C)N(C)C(=O)N1CCN(C(=O)[C@H]3CN3)[C@@H](C)C1)C(=O)N1CCC[C@H](N1)C(=O)OCC(C)(C)C2 [Compound 297],100 to 1000 nM,< 5000 nM,10 to 100 nM,,,,,
"CCn1c(-c2cnccc2COC)c2c3cc(ccc31)-c1cc(O)cc(c1)C[C@H](NC(=O)[C@H](C(C)C)N(C)C(=O)CN(C)C(=O)[C@H]1[C@@H](C(=O)OC)N1[S@+]([O-])C(C)(C)C)C(=O)N1CCC[C@H](N1)C(=O)OCC(C)(C)C2 (stereo partly drawn) [Example 48, methyl (2S,3R)-1-((R)-tert-butylsulfinyl)-3-((2-(((2S)-1-(((6^3S,4S)-1^1-ethyl-2^5-hydroxy-1^2-(4-(methoxymethyl)pyridin-3-yl)-10,10-dimethyl-5,7-dioxo-6^1,6^2,6^3,6^4,6^5,6^6-hexahydro-1^1H-8-oxa-1(5,3)-indola-6(1,3)-pyridazina-2(1,3)-benzenacycloundecaphane-4-yl)amino)-3-methyl-1-oxobutan-2-yl)(methyl)amino)-2-oxoethyl)(methyl)carbamoyl)aziridine-2-carboxylate]",,,,,< 5000 nM,,1000 to 10000 nM,100 to 1000 nM
CCn1c(-c2cccnc2[C@H](C)OC)c2c3cc(ccc31)-c1cc(O)cc(c1)C[C@H](NC(=O)[C@H](C(C)C)N(C)C(=O)CN(C)C(=O)[C@@H]1N[C@H]1C1COC1)C(=O)N1CCC[C@H](N1)C(=O)OCC(C)(C)C2 [Compound 283],,,,100 to 1000 nM,< 5000 nM,10 to 100 nM,,
CCn1c(-c2cccnc2[C@H](C)OC)c2c3cc(ccc31)-c1csc(n1)C[C@H](NC(=O)[C@H](C(C)C)N(C)C(=O)N1CC(CN(C)C(=O)[C@@H]3CN3)C1)C(=O)N1CCC[C@H](N1)C(=O)OCC(C)(C)C2 [Compound 225],100 to 1000 nM,< 5000 nM,10 to 100 nM,,,,,
CCn1c(-c2cccnc2[C@H](C)OC)c2c3cc(ccc31)-c1csc(n1)C[C@H](NC(=O)[C@H](C1CCCC1)N(C)C(=O)CN(C)C(=O)[C@@H]1N[C@@H]1C1CC1)C(=O)N1CCC[C@H](N1)C(=O)OCC(C)(C)C2 [Compound 210],100 to 1000 nM,< 5000 nM,100 to 1000 nM,,,,,
CCn1c(-c2cccnc2[C@H](C)OC)c2c3cc(ccc31)-c1cc(O)cc(c1)C[C@H](NC(=O)[C@H](C(C)C)N(C)C(=O)CN(C)C(=O)[C@H]1CN1CC(=O)N(C)C)C(=O)N1CCC[C@H](N1)C(=O)OCC(C)(C)C2 (stereo partly drawn) [Compound 270],,,,100 to 1000 nM,< 5000 nM,10 to 100 nM,,
CCn1c(-c2cccnc2[C@H](C)OC)c2c3cc(ccc31)-c1cc(O)cc(c1)C[C@H](NC(=O)[C@H](C(C)C)N(C)C(=O)[C@@H]1CO[C@H](C)CN1C(=O)[C@@H]1CN1)C(=O)N1CCC[C@H](N1)C(=O)OCC(C)(C)C2 [Compound 249],10 to 100 nM,< 5000 nM,10 to 100 nM,,,,,
CCn1c(-c2cccnc2[C@H](C)OC)c2c3cc(ccc31)-c1cc(O)cc(c1)C[C@H](NC(=O)[C@H](C(C)C)N(C)C(=O)CN(C)C(=O)[C@H]1N[C@H]1C(C)C)C(=O)N1CCC[C@H](N1)C(=O)OCC(C)(C)C2 [Compound 265],,,,100 to 1000 nM,< 5000 nM,10 to 100 nM,,
CCn1c(-c2cnccc2COC)c2c3cc(ccc31)-c1cc(O)cc(c1)C[C@H](NC(=O)[C@H](C(C)C)N(C)C(=O)CN(C)C(=O)[C@@H]1N[C@@H]1C1CC1)C(=O)N1CCC[C@H](N1)C(=O)OCC(C)(C)C2 [Compound 103],,,,100 to 1000 nM,< 5000 nM,100 to 1000 nM,,
CCn1c(-c2cccnc2[C@H](C)OC)c2c3cc(ccc31)-c1cc(O)cc(c1)C[C@H](NC(=O)[C@H](C(C)C)N(C)C(=O)CN(C)C(=O)[C@@H]1N[C@@H]1C(C)C)C(=O)N1CCC[C@H](N1)C(=O)OCC(C)(C)C2 [Compound 264],,,,100 to 1000 nM,< 5000 nM,10 to 100 nM,,
CCn1c(-c2cccnc2[C@H](C)OC)c2c3cc(ccc31)-c1cc(O)cc(c1)C[C@H](NC(=O)[C@H](C(C)C)N(C)C(=O)CN(C)C(=O)[C@H]1CN1Cc1ccccc1CO)C(=O)N1CCC[C@H](N1)C(=O)OCC(C)(C)C2 (stereo partly drawn) [Compound 156],,,,100 to 1000 nM,< 5000 nM,< 10 nM,,
CCn1c(-c2cccnc2[C@H](C)OC)c2c3cc(ccc31)-c1cc(O)cc(c1)C[C@H](NC(=O)[C@H](C(C)C)N(C)C(=O)C13CCC(CC1)N3C(=O)[C@H]1CN1)C(=O)N1CCC[C@H](N1)C(=O)OCC(C)(C)C2 [Compound 202],1000 to 10000 nM,< 5000 nM,100 to 1000 nM,,,,,
CCn1c(-c2cccnc2[C@H](C)OC)c2c3cc(ccc31)-c1cc(O)cc(c1)C[C@H](NC(=O)[C@H](C(C)C)N(C)C(=O)[C@@H]1CO[C@H](C)CN1C(=O)[C@H]1CN1)C(=O)N1CCC[C@H](N1)C(=O)OCC(C)(C)C2 [Compound 248],100 to 1000 nM,< 5000 nM,10 to 100 nM,,,,,

# — patent publication US11739074B2, “Ras inhibitors” (Revolution Medicines, Inc., priority 2019, dated 2023)
